Data published in ChEMBL document CHEMBL1201862, “PubChem BioAssay data set” (2004).
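Each compound was tested at five concentrations against cells in 96-well plates for 48 hours. GI50: concentration for 50% inhibition of growth.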 Calls of active or inactive are those of the source. No stated cut-off is given here; in the data, active = GI50 up to about 1.1 µM and inactive = higher.

Legend:
Experiment in all cases: growth of human tumour cells (NCI), 48 h
SNB-19 = tested on: SNB-19
RPMI-8226 = tested on: RPMI-8226
CAKI-1 = tested on: CAKI-1
NCI-H226 = tested on: NCI-H226
SR = tested on: SR
K562 = tested on: K562
TK-10 = tested on: TK-10
HCC 2998 = tested on: HCC 2998
OVCAR-4 = tested on: OVCAR-4
EKVX = tested on: EKVX
HCT-116 = tested on: HCT-116
HOP-92 = tested on: HOP-92
786-0 = tested on: 786-0
MDA-N = tested on: MDA-N
BT-549 = tested on: BT-549
HT-29 = tested on: HT-29
Malme-3M = tested on: Malme-3M
SN12C = tested on: SN12C
UO-31 = tested on: UO-31
RXF 393 = tested on: RXF 393
SF-268 = tested on: SF-268
SK-MEL-5 = tested on: SK-MEL-5
HL-60 = tested on: HL-60
M14 = tested on: M14
HOP-62 = tested on: HOP-62
OVCAR-8 = tested on: OVCAR-8
KM12 = tested on: KM12
COLO 205 = tested on: COLO 205
CCRF-CEM = tested on: CCRF-CEM
NCI-H522 = tested on: NCI-H522
OVCAR-3 = tested on: OVCAR-3
SF-539 = tested on: SF-539
NCI-H23 = tested on: NCI-H23
SK-OV-3 = tested on: SK-OV-3
SNB-75 = tested on: SNB-75
UACC-257 = tested on: UACC-257
ACHN = tested on: ACHN
NCI-H460 = tested on: NCI-H460
HCT-15 = tested on: HCT-15
U-251 = tested on: U-251
SK-MEL-28 = tested on: SK-MEL-28
SW-620 = tested on: SW-620
MDA-MB-231 = tested on: MDA-MB-231
DU-145 = tested on: DU-145
PC-3 = tested on: PC-3
NCI/ADR-RES = tested on: NCI/ADR-RES
OVCAR-5 = tested on: OVCAR-5
UACC-62 = tested on: UACC-62
T47D = tested on: T47D
MCF7 = tested on: MCF7
SK-MEL-2 = tested on: SK-MEL-2
SF-295 = tested on: SF-295
A549 = tested on: A549
MDA-MB-435 = tested on: MDA-MB-435
LOX IMVI = tested on: LOX IMVI
A498 = tested on: A498
Hs-578T = tested on: Hs-578T
IGROV-1 = tested on: IGROV-1
MOLT-4 = tested on: MOLT-4
DLD-1 = tested on: DLD-1
SNB-78 = tested on: SNB-78
M19-MEL = tested on: M19-MEL
DMS-114 = tested on: DMS-114
KM-20L2 = tested on: KM-20L2
DMS-273 = tested on: DMS-273

Measured: GI50

C[C@]12CCC(=O)C=C1CC[C@@H]1[C@@H]2[C@@H](O)C[C@@]2(C)[C@H]1CC[C@]2(O)C(=O)COC(=O)C1CCCC1
inactive: SNB-19 > 100 µM | RPMI-8226 1.63 µM | CAKI-1 > 100 µM | NCI-H226 > 100 µM | SR 43.3 µM | K562 > 100 µM | TK-10 > 100 µM | HCC 2998 > 100 µM | OVCAR-4 > 100 µM | EKVX 32.7 µM | HCT-116 > 100 µM | HOP-92 > 100 µM | 786-0 > 100 µM | MDA-N > 100 µM | BT-549 > 100 µM | HT-29 67.8 µM | Malme-3M > 100 µM | SN12C > 100 µM | UO-31 > 100 µM | RXF 393 > 100 µM | SF-268 > 100 µM | SK-MEL-5 > 100 µM | HL-60 > 100 µM | M14 > 100 µM | HOP-62 > 100 µM | OVCAR-8 > 100 µM | KM12 > 100 µM | COLO 205 > 100 µM | CCRF-CEM 7.73 µM | NCI-H522 > 100 µM | OVCAR-3 > 100 µM | SF-539 > 100 µM | NCI-H23 > 100 µM | SK-OV-3 > 100 µM | SNB-75 > 100 µM | UACC-257 > 100 µM | ACHN > 100 µM | NCI-H460 87.3 µM | U-251 > 100 µM | SK-MEL-28 > 100 µM | SW-620 > 100 µM | MDA-MB-231 > 100 µM | DU-145 > 100 µM | PC-3 > 100 µM | NCI/ADR-RES > 100 µM | OVCAR-5 > 100 µM | UACC-62 > 100 µM | T47D > 100 µM | MCF7 > 100 µM | SK-MEL-2 > 100 µM | SF-295 > 100 µM | A549 58.2 µM | MDA-MB-435 > 100 µM | LOX IMVI > 100 µM | A498 > 100 µM | Hs-578T > 100 µM | IGROV-1 > 100 µM
> 100 µM: HCT-15

O=C(O)/C=C/c1c[nH]c(=O)[nH]c1=O
inactive: SNB-19 > 250 µM | RPMI-8226 > 250 µM | NCI-H226 > 250 µM | HCC 2998 > 250 µM | EKVX > 250 µM | HCT-116 > 250 µM | Malme-3M > 250 µM | UO-31 > 250 µM | SF-268 > 250 µM | SK-MEL-5 > 250 µM | MOLT-4 > 250 µM | HL-60 237 µM | OVCAR-8 > 250 µM | KM12 > 250 µM | COLO 205 > 250 µM | CCRF-CEM > 250 µM | NCI-H522 > 250 µM | OVCAR-3 > 250 µM | SF-539 > 250 µM | UACC-257 > 250 µM | NCI-H460 > 250 µM | U-251 > 250 µM | SK-MEL-28 > 250 µM | SW-620 > 250 µM | NCI/ADR-RES > 250 µM | DLD-1 > 250 µM | SNB-78 > 250 µM | UACC-62 > 250 µM | SK-MEL-2 > 250 µM | SF-295 129 µM | LOX IMVI > 250 µM | IGROV-1 > 250 µM
> 250 µM: HCT-15

Fc1cccc(C2ON=C(c3ccccc3)N2C23CC4CC(CC(C4)C2)C3)c1 (stereo not drawn)
> 10 µM: HCT-15
inactive: SNB-19 > 10 µM | RPMI-8226 8.77 µM | CAKI-1 > 10 µM | NCI-H226 > 10 µM | SR 8.97 µM | K562 > 10 µM | TK-10 > 10 µM | HCC 2998 > 10 µM | OVCAR-4 > 10 µM | EKVX > 10 µM | HCT-116 > 10 µM | HOP-92 > 10 µM | 786-0 > 10 µM | MDA-N > 10 µM | BT-549 > 10 µM | HT-29 > 10 µM | Malme-3M > 10 µM | SN12C > 10 µM | RXF 393 > 10 µM | SF-268 > 10 µM | SK-MEL-5 > 10 µM | MOLT-4 > 10 µM | HL-60 > 10 µM | M14 > 10 µM | HOP-62 > 10 µM | OVCAR-8 > 10 µM | KM12 > 10 µM | COLO 205 > 10 µM | NCI-H522 > 10 µM | OVCAR-3 > 10 µM | SF-539 > 10 µM | NCI-H23 > 10 µM | SK-OV-3 > 10 µM | SNB-75 > 10 µM | UACC-257 > 10 µM | ACHN > 10 µM | NCI-H460 > 10 µM | U-251 > 10 µM | SK-MEL-28 > 10 µM | SW-620 > 10 µM | MDA-MB-231 > 10 µM | DU-145 > 10 µM | PC-3 > 10 µM | NCI/ADR-RES > 10 µM | OVCAR-5 > 10 µM | UACC-62 > 10 µM | T47D > 10 µM | MCF7 > 10 µM | SK-MEL-2 > 10 µM | SF-295 > 10 µM | A549 > 10 µM | MDA-MB-435 > 10 µM | LOX IMVI > 10 µM | A498 > 10 µM | Hs-578T > 10 µM | IGROV-1 > 10 µM

COC(=O)c1s/c(=N\C(=S)N(C)C)n(-c2ccccc2)c1C(=O)OC
inactive: SNB-19 > 100 µM | RPMI-8226 73.5 µM | CAKI-1 > 100 µM | NCI-H226 > 100 µM | K562 > 100 µM | M19-MEL > 100 µM | TK-10 > 100 µM | HCC 2998 > 100 µM | OVCAR-4 94 µM | EKVX > 100 µM | HCT-116 > 100 µM | HOP-92 > 100 µM | 786-0 > 100 µM | HT-29 57 µM | Malme-3M > 100 µM | SN12C > 100 µM | UO-31 > 100 µM | RXF 393 > 100 µM | SF-268 > 100 µM | SK-MEL-5 > 100 µM | MOLT-4 66.8 µM | HL-60 32.6 µM | M14 > 100 µM | HOP-62 > 100 µM | OVCAR-8 > 100 µM | KM12 > 100 µM | DMS-114 70 µM | COLO 205 > 100 µM | NCI-H522 > 100 µM | OVCAR-3 > 100 µM | SF-539 > 100 µM | NCI-H23 > 100 µM | SK-OV-3 > 100 µM | SNB-75 52.2 µM | UACC-257 > 100 µM | ACHN > 100 µM | NCI-H460 > 100 µM | KM-20L2 > 100 µM | U-251 > 100 µM | SK-MEL-28 > 100 µM | SW-620 > 100 µM | OVCAR-5 > 100 µM | SNB-78 > 100 µM | UACC-62 > 100 µM | SK-MEL-2 > 100 µM | SF-295 > 100 µM | A549 > 100 µM | DMS-273 > 100 µM | LOX IMVI > 100 µM | A498 > 100 µM | IGROV-1 > 100 µM
> 100 µM: HCT-15

CCN(CC)CSc1nc2ccccc2[nH]1
inactive: SNB-19 > 100 µM | NCI-H226 > 100 µM | SR > 100 µM | TK-10 > 100 µM | EKVX > 100 µM | HCT-116 > 100 µM | HOP-92 > 100 µM | HT-29 > 100 µM | UO-31 > 100 µM | RXF 393 > 100 µM | MOLT-4 > 100 µM | HL-60 > 100 µM | M14 > 100 µM | HOP-62 > 100 µM | OVCAR-8 > 100 µM | KM12 > 100 µM | DMS-114 > 100 µM | CCRF-CEM > 100 µM | NCI-H522 > 100 µM | NCI-H23 > 100 µM | SK-OV-3 > 100 µM | UACC-257 > 100 µM | ACHN > 100 µM | NCI-H460 > 100 µM | U-251 > 100 µM | SK-MEL-28 > 100 µM | OVCAR-5 > 100 µM | SNB-78 > 100 µM | SF-295 > 100 µM | A549 > 100 µM | DMS-273 > 100 µM | A498 > 100 µM | IGROV-1 > 100 µM

COc1cc([C@@H]2c3cc4c(cc3[C@@H](NCCCN(C)C)[C@H]3COC(=O)[C@H]23)OCO4)cc(OC)c1O
0.513 µM: HCT-15
active: SNB-19 0.22 µM | RPMI-8226 0.525 µM | M19-MEL 0.53 µM | HCC 2998 0.838 µM | EKVX 0.745 µM | HCT-116 0.658 µM | HT-29 0.916 µM | Malme-3M 0.379 µM | UO-31 0.423 µM | SK-MEL-5 0.212 µM | MOLT-4 0.0222 µM | HL-60 0.0582 µM | KM12 0.769 µM | CCRF-CEM 0.098 µM | NCI-H522 0.637 µM | OVCAR-3 0.849 µM | SF-539 0.376 µM | SK-OV-3 0.137 µM | ACHN 0.076 µM | NCI-H460 0.0232 µM | KM-20L2 0.716 µM | U-251 0.242 µM | SW-620 0.346 µM | SF-295 0.0995 µM | A549 0.142 µM | DMS-273 0.164 µM | LOX IMVI 0.181 µM | IGROV-1 0.653 µM
inactive: OVCAR-5 1.15 µM
